The values below come from US11584747B2, “Substituted pyridopyrimidinonyl compounds useful as T cell activators” (BRISTOL-MYERS SQUIBB COMPANY, priority 2019, dated 2023).

The target in one test is human DGKζ (Homo sapiens (Human), UniProt Q13574). The test can be described thus: DGKζ LIPGLO assay (extruded liposome substrate, ADP-Glo luminescence). The class given is biochemical. To be noted: liposome (LIPGLO) assay; read-out: DGK zeta (liposome assay) IC50.
The next test has as its target human DGKα (Homo sapiens (Human), UniProt P23743). The test can be described thus: DGKα ADPGLO assay (detergent/lipid micelle substrate). In kind it is biochemical. The conditions noted are these: ADPGLO assay; read-out: DGK alpha ADPGLO IC50. As for the experimental part:
DGK Alpha ADPGLO (Truncated) IC50 (uM)
The detergent/lipid micelle was prepared by combining 15 g phosphatidylserine (Avanti 840035P) and 1 g diacylglycerol (8008110) and dissolving into 150 mL chloroform in a 2 L round bottom flask. Chloroform was removed under high vacuum by rotary evaporation. […] The lipid/detergent solution was split into 5 mL aliquots and stored at −80° C.
For orientation: ADP-Glo first removes unused ATP, then detects ADP through luciferase.

The test system of the next test is whole blood (pERK). The test can be described thus: pERK Whole Blood. The class given is cell-based.
Test [1] concerns human venous whole blood (IFN-γ). The test can be described thus: Human whole blood IFN-γ assay. To be noted: human whole blood, anti-CD3 plus anti-CD28 stimulation, 24 hours; read-out: IFN-γ Whole Blood EC50. The class given is cell-based. As for the experimental part: Human venous whole blood (22.5 μL per well), obtained from healthy donors, was pre-treated with compounds for one hour at 37° C. in a humidified 95% air/5% CO2 incubator. The blood was stimulated with 2.5 μL anti-human CD3 and anti-CD28 mAb at a final concentration of 1 μg/mL each for 24 hours at 37° C. IFN-γ in the supernatants was measured using AlphLISA kit (Cat #AL217).

human DGKζ, sequence (Q13574 other isoform, or with tags, fused parts or gaps): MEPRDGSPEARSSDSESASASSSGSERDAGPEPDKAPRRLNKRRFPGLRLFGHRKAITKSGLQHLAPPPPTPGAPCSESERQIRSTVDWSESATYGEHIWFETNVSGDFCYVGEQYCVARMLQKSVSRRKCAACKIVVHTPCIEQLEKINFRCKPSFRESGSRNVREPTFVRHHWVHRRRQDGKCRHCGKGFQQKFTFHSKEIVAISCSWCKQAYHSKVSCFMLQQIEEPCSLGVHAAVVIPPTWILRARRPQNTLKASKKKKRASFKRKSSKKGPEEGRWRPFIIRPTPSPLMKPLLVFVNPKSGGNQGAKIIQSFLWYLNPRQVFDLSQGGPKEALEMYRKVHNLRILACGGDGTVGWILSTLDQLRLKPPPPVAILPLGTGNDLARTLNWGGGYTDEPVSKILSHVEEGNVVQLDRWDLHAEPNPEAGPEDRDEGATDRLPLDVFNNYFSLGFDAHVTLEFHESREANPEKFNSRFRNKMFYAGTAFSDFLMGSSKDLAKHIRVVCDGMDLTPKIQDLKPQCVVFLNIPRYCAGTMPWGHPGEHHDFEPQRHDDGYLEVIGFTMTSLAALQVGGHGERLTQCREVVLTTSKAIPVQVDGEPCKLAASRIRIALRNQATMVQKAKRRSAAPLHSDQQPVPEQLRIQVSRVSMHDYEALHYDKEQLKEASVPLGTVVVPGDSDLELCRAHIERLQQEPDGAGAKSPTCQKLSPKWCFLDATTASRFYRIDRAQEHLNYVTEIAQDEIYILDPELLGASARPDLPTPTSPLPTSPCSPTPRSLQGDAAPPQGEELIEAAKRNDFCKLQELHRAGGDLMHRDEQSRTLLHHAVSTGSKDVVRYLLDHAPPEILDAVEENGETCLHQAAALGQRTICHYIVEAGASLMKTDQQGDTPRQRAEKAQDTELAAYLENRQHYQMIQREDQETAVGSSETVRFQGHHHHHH
human DGKα, sequence (P23743 whole entry, looked up, the tested form may be a part): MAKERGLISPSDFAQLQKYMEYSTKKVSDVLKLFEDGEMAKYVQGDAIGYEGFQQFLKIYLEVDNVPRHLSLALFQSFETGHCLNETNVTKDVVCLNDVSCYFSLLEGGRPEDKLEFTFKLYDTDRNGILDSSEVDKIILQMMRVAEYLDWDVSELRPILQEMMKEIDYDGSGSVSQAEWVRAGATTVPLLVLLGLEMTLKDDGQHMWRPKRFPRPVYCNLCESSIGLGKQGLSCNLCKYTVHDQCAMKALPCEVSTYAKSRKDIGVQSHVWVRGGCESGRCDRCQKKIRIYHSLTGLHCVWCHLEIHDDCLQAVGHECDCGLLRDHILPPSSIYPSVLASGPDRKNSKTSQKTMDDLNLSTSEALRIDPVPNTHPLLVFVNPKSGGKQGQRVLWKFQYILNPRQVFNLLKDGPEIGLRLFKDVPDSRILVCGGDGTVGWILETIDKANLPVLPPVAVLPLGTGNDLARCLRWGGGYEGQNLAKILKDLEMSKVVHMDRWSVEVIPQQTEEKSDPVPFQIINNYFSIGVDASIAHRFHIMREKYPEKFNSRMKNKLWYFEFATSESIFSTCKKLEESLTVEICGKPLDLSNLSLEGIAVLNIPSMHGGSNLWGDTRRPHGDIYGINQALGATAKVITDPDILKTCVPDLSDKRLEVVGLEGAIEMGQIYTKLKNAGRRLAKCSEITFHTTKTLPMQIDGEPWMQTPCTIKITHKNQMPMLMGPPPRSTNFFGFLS

Usually IC50 stands for the concentration that inhibits the measured activity by half. For orientation: EC50 means the concentration needed to bring the measured effect to its halfway point. As for `CCC(c1ccc(C(C)(C)C#N)cc1)N1C[C@H](C)N(c2nc(=O)n(C)c3ccc(C#N)nc23)C[C@H]1CC` (stereo partly drawn) [Example 318, 4-((2S,5R)-4-(1-(4-(2-cyanopropan-2-yl)phenyl)propyl)-5-ethyl-2-methylpiperazin-1-yl)-1-methyl-2-oxo-1,2-dihydropyrido[3,2-d]pyrimidine-6-carbonitrile], the IC50 at human DGKζ was 1570 nM; at human DGKα it was 620 nM. Moreover, the concentration giving a half-maximal response (EC50) in the test on whole blood (pERK) stood at 3070 nM.
Regarding `CCOC[C@@H]1CN(c2nc(=O)n(C)c3ccc(C#N)nc23)[C@@H](C)CN1C(CC)c1ccc(C(F)(F)F)cc1` (stereo partly drawn) [Example 400, 4-((2S,5S)-5-(ethoxymethyl)-2-methyl-4-(1-(4-(trifluoromethyl)phenyl)propyl)piperazin-1-yl)-1-methyl-2-oxo-1,2-dihydropyrido[3,2-d]pyrimidine-6-carbonitrile], the IC50 on human DGKζ was determined as 47 nM; on human DGKα, 750 nM. For the same molecule, the EC50 with whole blood (pERK) was 20000 nM.
The like results for `CC[C@H]1CN(C(C)c2ccc(C(F)(F)F)cc2)[C@H](CC)CN1c1nc(=O)n(C)c2ccc(C(F)F)nc12` (stereo partly drawn) [Example 439, 4-((2S,5R)-2,5-Diethyl-4-(1-(4-(trifluoromethyl)phenyl)ethyl)piperazin-1-yl)-6-(difluoromethyl)-1-methylpyrido[3,2-d]pyrimidin-2(1H)-one] were, in that order, 400 nM, 360 nM and 10900 nM.
Take `CCC(c1ccc(F)c(F)c1)N1C[C@H](C)N(c2nc(=O)n(C)c3ccc(C#N)nc23)C[C@H]1CC` (stereo partly drawn) [Example 319, 4-((2S,5R)-4-(1-(3,4-difluorophenyl)propyl)-5-ethyl-2-methylpiperazin-1-yl)-1-methyl-2-oxo-1,2-dihydropyrido[3,2-d]pyrimidine-6-carbonitrile]: the concentration for half-maximal inhibition (IC50) on human DGKζ came out at 22 nM; at human DGKα, 52 nM. The same molecule registered an EC50 in the test on whole blood (pERK) of 130 nM.
Consider `CCC[C@@H]1CN(c2nc(=O)n(C)c3ccc(C#N)nc23)[C@@H](C)CN1C(C)c1ccc(C(F)(F)F)cc1` (single isomer, unassigned) [Example 395], for which, on human DGKα, the IC50 came out at 490 nM. The molecule further came in with an EC50 in the test with whole blood (pERK) of 20000 nM.
`CCC(c1ccc(OCc2nccs2)cc1)N1C[C@H](C)N(c2nc(=O)n(C)c3ccc(C#N)nc23)C[C@H]1CC` (stereo partly drawn) [Example 348, 4-((2S,5R)-5-ethyl-2-methyl-4-(1-(4-(thiazol-2-ylmethoxy)phenyl)propyl)piperazin-1-yl)-1-methyl-2-oxo-1,2-dihydropyrido[3,2-d]pyrimidine-6-carbonitrile]: the IC50 at human DGKζ was 45 nM; at human DGKα, 61 nM. This molecule yielded an EC50 with whole blood (pERK) of 1950 nM.
With `CC[C@@H]1CN(c2nc(=O)n(C)c3ccc(C#N)nc23)[C@@H](C)CN1C(c1ccc(OC)cc1)C(C)C` (stereo partly drawn) [Example 314, 4-((2S,5R)-5-ethyl-4-(1-(4-methoxyphenyl)-2-methylpropyl)-2-methylpiperazin-1-yl)-1-methyl-2-oxo-1,2-dihydropyrido[3,2-d]pyrimidine-6-carbonitrile], the IC50 at human DGKζ stood at 4 nM; at human DGKα, 25 nM. Also, in the test on whole blood (pERK), the half-maximal effective concentration (EC50) came to 50 nM.
In the case of `CC[C@@H]1CN(c2nc(=O)n(C)c3ccc(C#N)nc23)[C@@H](C)CN1C(c1ccc(OC)cc1)C(C)C` (stereo partly drawn) [Example 313, 4-((2S,5R)-5-ethyl-4-(1-(4-methoxyphenyl)-2-methylpropyl)-2-methylpiperazin-1-yl)-1-methyl-2-oxo-1,2-dihydropyrido[3,2-d]pyrimidine-6-carbonitrile], the IC50 was 650 nM at human DGKζ and 230 nM at human DGKα. Further, the EC50 with whole blood (pERK) was found to be 57 nM.
On the same counts, the results for `[2H]C([2H])([2H])n1c(=O)nc(N2C[C@@H](CC)N(C(C)c3ccc(C(F)(F)F)cc3)C[C@@H]2C)c2nc(Cl)ccc21` (single isomer, unassigned) [Example 418] are 8710 nM, 92 nM and 20000 nM.
On the same counts, the results for `CCC(c1ccc(OCC2CCOCC2)cc1)N1C[C@H](C)N(c2nc(=O)n(C)c3ccc(C#N)nc23)C[C@H]1CC` (stereo partly drawn) [Example 338, 4-((2S,5R)-5-ethyl-2-methyl-4-(1-(4-((tetrahydro-2H-pyran-4-yl)methoxy)phenyl)propyl)piperazin-1-yl)-1-methyl-2-oxo-1,2-dihydropyrido[3,2-d]pyrimidine-6-carbonitrile] are 1310 nM, 910 nM and 20000 nM.
Take `CCC(c1ccc(C(F)(F)F)cc1)N1C[C@H](CC)N(c2nc(=O)[nH]c3ccc(C#N)nc23)C[C@H]1CC` (stereo partly drawn) [Example 416, 4-((2S,5R)-2,5-diethyl-4-(1-(4-(trifluoromethyl)phenyl)propyl)piperazin-1-yl)-2-oxo-1,2-dihydropyrido[3,2-d]pyrimidine-6-carbonitrile]: the IC50 at human DGKζ stood at 740 nM; on human DGKα it was 140 nM. This molecule also registered an EC50 with whole blood (pERK) of 3140 nM.
`[2H]C([2H])([2H])n1c(=O)nc(N2C[C@@H](CC)N(C(C)c3ccc(C(F)(F)F)cc3)C[C@@H]2C)c2nc(Cl)ccc21` (single isomer, unassigned) [Example 417]: the IC50 at human DGKζ is 520 nM; at human DGKα, 170 nM. Moreover, in the test with whole blood (pERK), the half-maximal effective concentration (EC50) amounted to 20000 nM.
The like results for `CCC(c1ccc(OCc2nccs2)cc1)N1C[C@H](C)N(c2nc(=O)n(C)c3ccc(C#N)nc23)C[C@H]1CC` (stereo partly drawn) [Example 347, 4-((2S,5R)-5-ethyl-2-methyl-4-(1-(4-(thiazol-2-ylmethoxy)phenyl)propyl)piperazin-1-yl)-1-methyl-2-oxo-1,2-dihydropyrido[3,2-d]pyrimidine-6-carbonitrile] were, in that order, 950 nM, 320 nM and 1990 nM.
On to `CC(c1ccc(C(F)(F)F)cc1)N1C[C@H](CO)N(c2nc(=O)n(C)c3ccc(C#N)nc23)C[C@H]1C` (single isomer, unassigned) [Example 406], for which the figures for the IC50 on human DGKζ and at human DGKα were 81100 nM and 1960 nM, respectively. This molecule returned a concentration giving a half-maximal response (EC50) in the test with whole blood (pERK) of 7130 nM.
As for `CCC(c1ccc(OCCC2CC2)cc1)N1C[C@H](C)N(c2nc(=O)n(C)c3ccc(C#N)nc23)C[C@H]1CC` (stereo partly drawn) [Example 339, 4-((2S,5R)-4-(1-(4-(2-cyclopropylethoxy)phenyl)propyl)-5-ethyl-2-methylpiperazin-1-yl)-1-methyl-2-oxo-1,2-dihydropyrido[3,2-d]pyrimidine-6-carbonitrile], the IC50 on human DGKζ amounted to 79 nM; on human DGKα it was 75 nM. This molecule showed an EC50 in the test on whole blood (pERK) of 280 nM.
`CCC(c1ccc(OCC2(C)CC2)cc1)N1C[C@H](C)N(c2nc(=O)n(C)c3ccc(C#N)nc23)C[C@H]1CC` (stereo partly drawn) [Example 345, 4-((2S,5R)-5-ethyl-2-methyl-4-(1-(4-((1-methylcyclopropyl)methoxy)phenyl)propyl)piperazin-1-yl)-1-methyl-2-oxo-1,2-dihydropyrido[3,2-d]pyrimidine-6-carbonitrile]: the IC50 worked out at 95 nM at human DGKζ and 49 nM at human DGKα. This molecule displayed an EC50 in the test on whole blood (pERK) of 1740 nM.
On the same counts, the results for `CCC(c1nc(C2CC2)no1)N1C[C@H](CC)N(c2nc(=O)n(C)c3ccc(C#N)nc23)C[C@H]1CC` (stereo partly drawn) [Example 364, 4-((2S,5R)-4-(1-(3-cyclopropyl-1,2,4-oxadiazol-5-yl)propyl)-2,5-diethylpiperazin-1-yl)-1-methyl-2-oxo-1,2-dihydropyrido[3,2-d]pyrimidine-6-carbonitrile] are 330 nM, 53 nM and 1800 nM.
The like results for `CC[C@@H]1CN(c2nc(=O)n(C)c3ccc(C#N)nc23)[C@@H](C)CN1C(C)c1ccc(C(F)(F)F)c(C#N)c1` (single isomer, unassigned) [Example 357] were, in that order, 1560 nM, 2080 nM and 3780 nM.
On the same counts, the results for `CCC(c1ccc(OCC2CN(C)C2)cc1)N1C[C@H](C)N(c2nc(=O)n(C)c3ccc(C#N)nc23)C[C@H]1CC` (stereo partly shown) [Example 344, 4-((2 S, 5R)-5-ethyl-2-methyl-4-(1-(4-((1-methylazetidin-3-yl)methoxy)phenyl)propyl)piperazin-1-yl)-1-methyl-2-oxo-1,2-dihydropyrido[3,2-d]pyrimidine-6-carbonitrile] are 17100 nM, 10100 nM and 20000 nM.
Turning to `CCOc1ccc2c(n1)c(N1C[C@@H](CC)N(C(C)c3ccc(C(F)(F)F)cc3)C[C@@H]1CC)nc(=O)n2C` (stereo partly drawn) [Example 430, 4-((2S,5R)-2,5-diethyl-4-(1-(4-(trifluoromethyl)phenyl)ethyl)piperazin-1-yl)-6-ethoxy-1-methylpyrido[3,2-d]pyrimidin-2(1H)-one], at human DGKζ, the IC50 turned out to be 125000 nM. Also, the concentration giving a half-maximal response (EC50) (in test [1]; with whole blood (pERK)) was 20000 nM throughout.
For the molecule `CC[C@@H]1CN(c2nc(=O)n(C)c3ccc(C#N)nc23)[C@@H](C)CN1C(C)c1ccc(C(F)(F)F)c(CN2CCCCC2)c1` (stereo partly drawn) [Example 354, 4-((2S,5R)-5-ethyl-2-methyl-4-(1-(3-(piperidin-1-ylmethyl)-4-(trifluoromethyl)phenyl)ethyl)piperazin-1-yl)-1-methyl-2-oxo-1,2-dihydropyrido[3,2-d]pyrimidine-6-carbonitrile], the IC50 at human DGKζ turned out to be 650 nM. The same molecule returned an EC50 with whole blood (pERK) of 7950 nM.
